# Data as given in patent US9981043B2, “Analgesic conjugates” (priority 2013, dated 2018).
# Where “and” joins values, the source holds several entries; their conditions need not be identical. Equal entries are not always repeated. Entries after “also recorded” stand apart in the source; their conditions may differ.
# Tested on: C3H mice with bone cancer
# Assay: von Frey mechanical hyperalgesia, bone cancer (fibrosarcoma) mice
# Assay type: in vivo
# Protocol: The mouse hind paw model of bone cancer was the third model of pain (Wacnik P W, et al., Pain Research & Management, 2000, 16, 615-637; and Wacnik P W, et al., J Neurosci, 2001, 21(23), 9355-9366). Cell Culture: National Collection of Type Cultures (NCTC) clone 2472 fibrosarcoma cells, originally derived from a connective tissue tumor in a C3H mouse, were obtained from the American Type Cell Culture Collection (Rockville, Md.). Cells were grown and maintained in accordance with standard cell culturing techniques. NCTC cells were grown to 80-90% confluence in 75 cm^2 flasks (Corning, Lowell, Mass.) in Dulbecco's Modification of Eagles Medium (Invitrogen, Carlsbad, Calif.) fortified with 10% Horse Serum and sodium bicarbonate. Cell cultures were housed in a water-jacketed incubator with 5% carbon dioxide at 37° C.
# Cells were prepared for implantation by first pouring off the culture medium and washing with phosphate-buffered saline (PBS). Trypsin was added to flask and placed in incubator for 3 minutes. Upon detachment, cells were suspended in an ample amount of culture medium to terminate enzymatic activity and centrifuged for 10 min at 1000 g. Fibrosarcoma cells were re-suspended in a known amount of PBS for counting, quantified on a hemacytometer, pelleted and re-suspended in PBS. Fibrosarcoma cells were again re-suspended to a final concentration of 2×10^5 cells in 20 μl. Initially, animals were anesthetized in a plexi-glass chamber using 3% isoflurane in 3 L/min oxygen. Once each mouse was completely anesthetized, a maintenance rate of 2% isoflurane in 1.5 L/min oxygen was maintained during the short implantation procedure. Tumor cells were manually injected by boring into the calcaneus bone using a 29½ gauge needle connected to a sterile 0.3 ml insulin syringe as previously described (19). Following injection, mice were allowed to recover in cages on a heating pad. Animals showing any signs of dysfunction (e.g. problems with ambulation, lethargy or excessive bleeding) or distress where euthanized according to CO2 guidelines.
# C3H mice were was placed under a clean glass cup on a wire mesh grid and allowed to acclimate for thirty minutes. Mechanical hypersensitivity was tested using a von Frey filament #3.61 (which produces a force of […]) to the plantar surface of both the left and right hind paw with enough force to cause it to bow slightly. Starting with the right hind paw, the number of positive responses out of a total of 10 applications was recorded followed by the left hind paw. Positive response was indicated by a sharp withdrawal or flinching behavior of the paw. Baseline von Frey measurements were obtained prior to treatment with CFA, tumor and saline controls. […] Subsequent measurements were taken at various time points after intrathecal (i.t.) injection of test compounds on days 3, 7, 10, 14, 17, and 21. % MPE was calculated ((Time-point value−Day# baseline)/(Day 0 baseline−day# baseline))*100 (Smeester B A, Al-Gizawiy M, & Beitz A J (2012) Evidence-Based Complementary and Alternative Medicine 2012:16). Animals with saline injection served as controls for tumor cell implantation and tumor-induced nociception. Behavioral assessments were conducted during the light cycle at approximately the same time each day. The investigator performing the von Frey testing was blinded to the animal and compound injected.
# A well-established rodent hind paw model of bone cancer pain (Wacnik P W, et al., J Neurosci. 2001, 21(23), 9355-66) was to examine the effects of representative bivalent ligands on tumor-induced nociception. The inbred C3H/He line is syngeneic to the fibrosarcoma cells used in these experiments and allows these cells to grow tumors without rejection. Male C3H mice were used for all experiments. Animals were maintained on a 12 hour light/dark cycle with food and water ad libitum.
# Cells were prepared for implantation by first pouring off the culture medium and washing with phosphate-buffered saline (PBS). […]
smiles,measurement,setting,value
"Cc1cccc(C#Cc2cccc(OCCNC(=O)COCC(=O)NCCCCCNC(=O)COCC(=O)N[C@H]3CC[C@@]4(O)C5Cc6ccc(O)c7c6[C@@]4(CCN5C)[C@H]3O7)c2)n1 [Compound 4c, N-((4aS,7S,7aR,12bS)-4a,9-dihydroxy-3-methyl-2,3,4,4a,5,6,7,7a-octahydro-1H-4,12-methanobenzofuro[3,2-e]isoquinolin-7-yl)-2-((1-(3-((6-methylpyridin-2-yl)ethynyl)phenoxy)-4,8,16-trioxo-6-oxa-3,9,15-triazaheptadecan-17-yl)oxy)acetamide]",Tolerance,"bone cancer mice, i.t.",without tolerance; also recorded: absence of tolerance
same,duration of significant antinociception,"bone cancer, PID 21, 1 nmol i.t.",12 h
same,duration of antinociception,"bone cancer, PID 21, single 10 nmol i.t.",24 h and > 24 h
same,ED50 i.t.,"bone cancer, day 21, i.t.",0.01 fmol/mouse
same,antinociception in tumor-bearing mice,"bone cancer, i.t., beginning on PID 3",potent antinociception
